PMC9913752, “Proof-of-Concept Study of an Alpha-Fetoprotein-Derived Peptide for the Management of Canine Mammary Cancer” (Animals : an Open Access Journal from MDPI, 2023)
Where a SMILES comes first, the peptide text is derived from it. [ ]: non-standard residue; d: D form. Hyp = O=C(O)[C@@H]1C[C@@H](O)CN1

How the values were obtained:
Pharmacokinetics in mice = format: in vivo; conditions: mouse; for Cmax / AUC: plasma LC/MS/MS; for half-life: in vivo
Experimental: AFPep (4 mg/kg) was administered by parenteral (i.v., s.c.) as well as oral routes to normal adult mice, dogs, and monkeys. Blood samples were obtained from anesthetized mice via the retroorbital plexus. Blood samples from dogs and monkeys were obtained through an indwelling catheter in the cephalic vein by the veterinarian staff at Albany Medical College. Dogs were awake and alert during sampling; monkeys were under anesthesia, as previously described. For the oral route, gavage was used in mice and monkeys; enteric capsules ([…]) containing AFPep were used and were readily swallowed by dogs. AFPep blood levels were measured using lliquid chromatography and mass spectrometry, as previously described.

[1] = test system: MCF-7 human breast cancer xenografts; conditions: cited from earlier work
Experimental: Table 1 The therapeutic and preventive efficacy of AFPep * in rodent models of mammary cancer. | column: MCF-7 Human Breast Cancer Growth in SCID Mice ^1 || The efficacy of AFPep in various models of mammary cancer has been shown in multiple reports. […] A 4 mg/kg dose was assessed parenterally, and the dosage was escalated to 100 mg/kg, administered orally.

Cmax (Pharmacokinetics in mice; iv, 4 mg/kg (100 µg/mouse), non-linear regression, first-order PK model): 12 µg/mL | AUC (Pharmacokinetics in mice; iv, 4 mg/kg): 4.2 µg·h/mL | half-life (Pharmacokinetics in mice; iv, 4 mg/kg): 11 min | half-life (Pharmacokinetics in mice; po): 6.3 min | half-life (Pharmacokinetics in mice; sc, 4 mg/kg): 11 min | AUC (Pharmacokinetics in mice; po, p.o. gavage, 4 mg/kg per footnote (100 mg/kg orally)): 0.08 µg·h/mL | Cmax (Pharmacokinetics in mice; po, p.o. gavage, 4 mg/kg per footnote (escalated to 100 mg/kg orally)): 0.14 µg/mL | AUC (Pharmacokinetics in mice; sc, 4 mg/kg): 3.45 µg·h/mL | Cmax (Pharmacokinetics in mice; sc, 4 mg/kg): 6.4 µg/mL
SMILES: CC(C)[C@@H]1NC(=O)[C@@H]2C[C@@H](O)CN2C(=O)[C@H]([C@@H](C)O)NC(=O)[C@H](CCCCN)NC(=O)[C@H](CCC(=O)O)NC(=O)[C@H](CC(N)=O)NC(=O)CNC(=O)[C@@H]2C[C@@H](O)CN2C(=O)[C@H](CC(N)=O)NC1=O [AFPep] (cyclo(EKT[Hyp]VN[Hyp]GN))
MCF-7 Human Breast Cancer Growth in SCID Mice (tumor volume) ([1]; AFPep 100 μg/mouse (4 mg/kg) oral gavage once daily for 14 days, established xenografts, p < 0.05 vs saline): 30 mm³ | blood levels of AFPep needed for anti-breast cancer activity [1]: 10^−7 M | minimum blood level (Cmax) needed for stoppage of xenograft growth ([1]; dose-response studies, human breast cancer xenografts in immune-deficient mice): 0.1 µg/mL | minimum AUC needed for stoppage of xenograft growth ([1]; dose-response studies, xenografts in mice): 6.5 µg·min/mL | tumor outgrowth when dosing begun immediately following tumor implantation ([1]; once daily, 30-day observation period): completely prevented | growth of established MCF-7 xenografts ([1]; once-daily oral 4 mg/kg over a 14-day period, immunodeficient mice): almost completely stopped in their growth
